Measurements published in paper PMC10507043, “Metabolite interactions in the bacterial Calvin cycle and implications for flux regulation” (Communications Biology, 2023).

Assays:
Assay type in all cases: biochemical
syn-F/SBPase [1] = biological target: T1, syn-F/SBPase (Synechocystis sp. PCC 6803, UniProt P73922, R194H); experiment: Malachite Green phosphate release, inhibition; details: substrate fructose-1,6-bisphosphate; AMP-insensitive variant
T1 construct: gene slr2094; recombinant, codon-optimised, pET-28a(+), E. coli BL21, HisTrap purified; homotetramer

syn-TKT [2] = biological target: T2, syn-TKT (Synechocystis sp. PCC 6803, UniProt P73282); experiment: alcohol dehydrogenase-coupled NADH assay, inhibition; details: 1 mM AMP, glycylglycine pH 7.5, thiamine pyrophosphate, Mg2+
T2 construct: gene tktA; recombinant from genomic DNA, pET-28a(+), E. coli BL21, HisTrap purified
T2 sequence (P73282 1-670): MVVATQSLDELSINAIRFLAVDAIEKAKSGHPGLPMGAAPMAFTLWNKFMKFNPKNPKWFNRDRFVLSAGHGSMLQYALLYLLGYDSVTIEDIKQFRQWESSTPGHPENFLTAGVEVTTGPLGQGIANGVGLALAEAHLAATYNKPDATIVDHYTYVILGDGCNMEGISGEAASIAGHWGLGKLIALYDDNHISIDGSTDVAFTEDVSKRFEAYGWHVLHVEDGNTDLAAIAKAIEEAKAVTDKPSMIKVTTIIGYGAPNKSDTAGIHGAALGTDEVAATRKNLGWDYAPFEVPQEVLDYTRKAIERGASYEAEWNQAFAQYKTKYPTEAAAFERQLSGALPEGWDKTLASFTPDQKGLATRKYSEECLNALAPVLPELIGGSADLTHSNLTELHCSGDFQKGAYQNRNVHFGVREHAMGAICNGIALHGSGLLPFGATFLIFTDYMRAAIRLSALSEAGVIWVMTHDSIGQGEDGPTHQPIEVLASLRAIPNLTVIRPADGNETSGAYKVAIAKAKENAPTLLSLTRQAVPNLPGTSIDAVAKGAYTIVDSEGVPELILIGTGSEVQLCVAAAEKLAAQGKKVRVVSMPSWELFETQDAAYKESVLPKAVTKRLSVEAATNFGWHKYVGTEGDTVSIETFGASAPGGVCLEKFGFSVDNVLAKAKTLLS

syn-F/SBPase [3] = biological target: T1, syn-F/SBPase; experiment: Malachite Green phosphate release, activation; details: substrate fructose-1,6-bisphosphate; AMP-insensitive variant
syn-TKT [4] = biological target: T2, syn-TKT; experiment: alcohol dehydrogenase-coupled NADH consumption at […] nm; details: 100 mM L-erythrulose, 2 mM thiamine pyrophosphate, 5 mM MgCl2, 100 mM glycylglycine pH 7.5; no added metabolite
cn-TKT [5] = biological target: T3, cn-TKT (Cupriavidus necator, UniProt P21726); experiment: as above; details: 100 mM L-erythrulose, 2 mM thiamine pyrophosphate, 5 mM MgCl2, 100 mM glycylglycine pH 7.5; no added metabolite
T3 construct: gene cbbTP; recombinant from genomic DNA, pET-28a(+), E. coli BL21, HisTrap purified
T3 sequence (P21726 1-670): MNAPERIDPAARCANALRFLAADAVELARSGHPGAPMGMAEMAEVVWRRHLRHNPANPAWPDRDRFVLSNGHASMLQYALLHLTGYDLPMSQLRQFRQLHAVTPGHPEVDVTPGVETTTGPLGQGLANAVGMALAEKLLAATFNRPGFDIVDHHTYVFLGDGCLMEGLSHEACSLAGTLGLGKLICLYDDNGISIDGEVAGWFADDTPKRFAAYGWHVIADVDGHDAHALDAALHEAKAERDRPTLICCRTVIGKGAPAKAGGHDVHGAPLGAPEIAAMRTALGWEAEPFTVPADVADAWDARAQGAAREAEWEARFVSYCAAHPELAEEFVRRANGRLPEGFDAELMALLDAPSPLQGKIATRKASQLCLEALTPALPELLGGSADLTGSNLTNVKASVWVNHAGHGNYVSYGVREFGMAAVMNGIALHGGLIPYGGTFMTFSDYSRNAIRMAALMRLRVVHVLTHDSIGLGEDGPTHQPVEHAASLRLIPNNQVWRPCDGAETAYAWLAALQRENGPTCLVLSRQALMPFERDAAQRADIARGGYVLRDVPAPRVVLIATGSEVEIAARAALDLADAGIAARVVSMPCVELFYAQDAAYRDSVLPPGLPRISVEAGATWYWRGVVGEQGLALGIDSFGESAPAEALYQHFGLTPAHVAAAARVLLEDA

cn-F/SBPase = biological target: T4, cn-F/SBPase (Cupriavidus necator, UniProt P19912); experiment: Malachite Green phosphate release, Hill fit; details: 50 mM Tris-HCl, 15 mM MgCl2, 10 mM DTT, 30 °C; no added metabolite
T4 construct: gene fbp3; recombinant, codon-optimised, pET-28a(+), E. coli BL21, HisTrap purified
T4 sequence (P19912 1-364): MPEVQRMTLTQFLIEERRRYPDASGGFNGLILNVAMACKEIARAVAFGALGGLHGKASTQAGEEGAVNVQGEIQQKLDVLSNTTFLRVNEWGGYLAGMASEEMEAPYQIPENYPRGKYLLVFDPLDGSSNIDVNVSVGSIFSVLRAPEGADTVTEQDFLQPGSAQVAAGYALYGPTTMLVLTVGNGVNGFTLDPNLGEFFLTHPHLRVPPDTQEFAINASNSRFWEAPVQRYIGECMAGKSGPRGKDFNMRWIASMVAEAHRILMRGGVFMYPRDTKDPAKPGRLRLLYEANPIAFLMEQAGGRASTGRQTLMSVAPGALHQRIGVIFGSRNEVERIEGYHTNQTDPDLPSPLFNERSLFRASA

syn-F/SBPase [6] = biological target: T5, syn-F/SBPase (Synechocystis sp. PCC 6803, UniProt P73922); experiment: Malachite Green phosphate release, Hill fit; details: 50 mM Tris-HCl, 15 mM MgCl2, 10 mM DTT, 30 °C; no added metabolite
T5 construct: gene slr2094; recombinant, codon-optimised, pET-28a(+), E. coli BL21, HisTrap purified; homotetramer
T5 sequence (P73922 1-345): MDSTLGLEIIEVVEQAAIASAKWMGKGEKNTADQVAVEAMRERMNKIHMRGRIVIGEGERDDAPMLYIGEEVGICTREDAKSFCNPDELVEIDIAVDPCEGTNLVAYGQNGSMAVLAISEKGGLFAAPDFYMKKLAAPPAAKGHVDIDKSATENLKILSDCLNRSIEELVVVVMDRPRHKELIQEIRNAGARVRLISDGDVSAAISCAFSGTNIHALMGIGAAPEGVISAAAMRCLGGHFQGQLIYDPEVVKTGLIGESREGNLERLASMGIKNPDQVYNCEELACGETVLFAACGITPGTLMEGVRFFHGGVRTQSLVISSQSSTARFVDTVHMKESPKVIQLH

cn-TKT [7] = biological target: T3, cn-TKT; experiment: alcohol dehydrogenase-coupled NADH assay, inhibition; details: 1 mM dihydroxyacetone phosphate, glycylglycine pH 7.5, thiamine pyrophosphate, Mg2+

T1 sequence (P73922 whole entry R194H): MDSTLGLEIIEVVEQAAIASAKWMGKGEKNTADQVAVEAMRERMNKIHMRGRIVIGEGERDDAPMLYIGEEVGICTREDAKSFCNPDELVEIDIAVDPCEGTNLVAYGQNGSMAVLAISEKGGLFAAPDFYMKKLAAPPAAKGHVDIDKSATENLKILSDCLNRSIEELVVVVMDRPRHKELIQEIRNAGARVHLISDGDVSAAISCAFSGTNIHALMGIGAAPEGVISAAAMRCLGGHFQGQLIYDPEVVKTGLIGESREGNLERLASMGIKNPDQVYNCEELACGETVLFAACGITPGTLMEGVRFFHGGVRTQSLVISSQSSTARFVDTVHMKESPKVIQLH

NC(=O)C1=CN([C@@H]2O[C@H](COP(=O)(O)OP(=O)(O)OC[C@H]3O[C@@H](n4cnc5c(N)ncnc54)[C@H](OP(=O)(O)O)[C@@H]3O)[C@@H](O)[C@H]2O)C=CC1 [NADPH]
Malachite Green phosphate release, inhibition (syn-F/SBPase [1]): This mutant lost AMP sensitivity but retained sensitivity to both GAP activation and NADPH inhibition

Nc1ncnc2c1ncn2[C@@H]1O[C@H](COP(=O)(O)O)[C@@H](O)[C@H]1O [AMP]
alcohol dehydrogenase-coupled NADH assay, inhibition (syn-TKT [2]): AMP and dihydroxyacetone phosphate, which specifically reduced the activity of syn-TKT and cn-TKT, respectively

O=C[C@H](O)COP(=O)(O)O [GAP, glyceraldehyde-3-phosphate]
Malachite Green phosphate release, activation (syn-F/SBPase [3]): This mutant lost AMP sensitivity but retained sensitivity to both GAP activation and NADPH inhibition

O=P(O)(O)OC[C@H]1OC(O)[C@H](O)[C@@H]1O (stereo partly drawn) [D-ribose-5-phosphate]
KM (syn-TKT [4]): conversion of D-ribose-5-phosphate and L-erythrulose to sedoheptulose-7-phosphate and glycolaldehyde was measured | KM (cn-TKT [5]): conversion of D-ribose-5-phosphate and L-erythrulose to sedoheptulose-7-phosphate and glycolaldehyde was measured

O=P(O)(O)OC[C@H]1OC(O)(COP(=O)(O)O)[C@@H](O)[C@@H]1O (some centres unmarked) [fructose-1,6-bisphosphate]
KM (cn-F/SBPase): Initial rates of syn-F/SBPase and cn-F/SBPase were measured at different substrate concentrations | KM (syn-F/SBPase [6]): activity on the substrate fructose-1,6-bisphosphate was screened using Malachite Green (MG) detection

O=C(CO)COP(=O)(O)O [dihydroxyacetone phosphate]
alcohol dehydrogenase-coupled NADH assay, inhibition (cn-TKT [7]): AMP and dihydroxyacetone phosphate, which specifically reduced the activity of syn-TKT and cn-TKT, respectively
